Each structure is given as a SMILES string.

This is an account of results in a melting point compilation (Tetko et al.; mined from patent text by program, amines drawn as free bases though some values may be those of a salt).

Turning to `CCOc1c(C2=C(C(C)(C)C)C(C)(C)CO2)oc2ccc(OC)cc12`, the melting point was 60 to 61 °C.

As for `CCCC(=O)c1cnc2c(OC)cccc2c1Nc1ccc(OC(C)=O)cc1C`, the melting point lay within 167 to 169 °C. The same measure for `O=C(O)c1cc(O)c2c(c1)C(=O)c1ccc(F)c(O)c1C2=O`: greater than 275 °C; for `CCCNC(=O)Cc1ccc2ccn(C3CCN(CCc4ccc(F)cc4)CC3)c2c1`: 131 to 132 °C; for `O=Cc1c(-c2ccc(F)cc2)n(CCF)c(=O)c2ccccc12`: 132 to 134 °C.

In the case of `CSc1nc(-c2cc(C(=O)N(C)C)ccc2C)c2c(n1)N(c1c(F)cccc1F)C(=O)NC2`, the melting point is 144 to 147 °C.

Compound `CN(C1CCN(Cc2ccsc2)CC1)S(=O)(=O)c1ccc(Nc2nccc(Nc3ccc(F)cc3)n2)cc1` came in with a melting point of 173 to 174 °C.

`CNC(=O)NCCSCc1ccccn1` registered a melting point of 63 to 66 °C. For `CC(O)c1cc(S(N)(=O)=O)sc1Sc1ccc(O)cc1` (centres undefined) the value was 133 to 137 °C; for `CNC(=O)CNC(=O)CN1CCCC1=O`, 139 to 140 °C; for `CCOP(=O)(OCC)C(OC)c1ccc(N)cc1` (centres undefined), 100 to 101 °C. The same measure for `CCOC(=O)c1ccccc1CN1C(=O)C(CCOc2ccc(CCNC(=O)OC(C)(C)C)cc2)Oc2ccccc21` (centres undefined): 103 to 105 °C; for `Cc1ccc(NC(=O)N2CC(C)(C)NC(C)(C)CC2=O)cc1`: 126 °C. For `CCCOc1cc2c(=O)c3ccccc3sc2cc1Cl` the value was 101 to 102 °C. `CC(C)(C)c1cc(C(C#N)N2CCCCC2)cc(C(C)(C)C)c1O` (centres undefined): the melting point is 110 to 111 °C.

With `CCNC(=O)c1nc2n(n1)-c1ccc(Cl)cc1C(c1ccccc1F)=NC2`, the melting point lay in the range of 232 to 234 °C. The same measure for `CN1CCN(c2cccc3ccc(C(=O)NCc4ccc(Cl)cc4)cc23)CC1`: 72 to 74 °C; for `NS(=O)(=O)c1cc2[nH]c(C(Cl)Cl)nc2cc1Cl`: 225 to 227 °C. The same measure for `COc1cc(OC)c2c(=O)[nH]c(-c3ccc(OCCNC(C)C)c(-c4ccccc4S(C)(=O)=O)n3)nc2c1`: 178 to 180 °C; for `O=C(Nc1ccc(S(=O)(=O)c2ncccn2)cc1)C(O)(C(F)F)C(F)F`: 209 to 210 °C; for `O=[N+]([O-])c1ccc(F)cc1Nc1ccc(F)cc1`: 115 to 116 °C. For `COc1ccc2c(n1)c(C=O)c1n2Cc2ccccc2-1` the value was 229 to 230 °C. Turning to `Nc1nc(Cn2c(-c3ccc(Oc4cncnc4)cc3)ccc2-c2ccccc2Cl)ccc1NCCO`, the melting point was in the range of 78 to 82 °C.

In turn, `N#Cc1ccc(COc2ccc(-c3ccc(C4Cc5ccccc5C(c5c(O)c6ccccc6oc5=O)C4)cc3)cc2)cc1` (centres undefined) returned a melting point of 127 °C. The same measure for `CCOC(=O)CC(=O)C=Cc1ccc(OC)cc1`: 69 °C; for `COc1cc(OC)c(C(C)=O)cc1OC`: 91 to 93 °C.

Regarding `CCNc1nc(NC(C)C)cc(NS(=O)(=O)c2ccc(N)cc2)n1`, the melting point is 258 to 259 °C. For `O=C1NC(=O)C(c2cccs2)O1` (centres undefined) the value was 138 to 140 °C. As to `OC1CSC(Oc2cccc(-c3ccncc3)n2)C(O)C1O` (centres undefined), the melting point worked out at 178 °C. For `COc1cc(CSc2nc3cnccc3[nH]2)cc(OC)c1` the value was 177 to 179 °C. The same measure for `COc1cc2ncc(N[C@@H]3C[C@H]4CC[C@@H]3C4)nc2cc1OC`: 184 to 186 °C; for `CCOc1cccc(N2CCN(CCCCOc3ccc4c(n3)NC(=O)CC4)CC2)c1Cl`: 110 to 112 °C. The same measure for `CCCCCCCC(=O)OCc1ccccc1-c1nc(-c2cccc(OCC)c2)n[nH]1`: 87 to 89 °C; for `COc1cc(COc2cc(C#N)n(-c3ccccc3)n2)ccc1OCc1nc(-c2ccccc2)oc1C`: 120 to 121 °C; for `O=C(O)Cc1ccc(N2CC3CCCCC3C2=O)cc1` (centres undefined): 157 to 159 °C. `COC(=O)NN=C1CCCCC1=Cc1ccc(Cl)cc1` showed a melting point of 160 to 162 °C. In turn, `Nc1ccnn1-c1c(F)cc(C(F)(F)F)cc1Cl` gave a melting point of 87 to 90 °C. For `COc1ccc(C=N[C@H]2C(OC(C)=O)O[C@H](COC(C)=O)[C@@H](OC(C)=O)[C@@H]2OC(C)=O)cc1` (some centres undefined) the value was 180 to 181 °C; for `CC1c2ccccc2CC(O)Cc2ccccc21` (centres undefined), 142 to 145 °C; for `OCC1OC(n2cnc3c(Cl)ncc(F)c32)C(O)C1O` (centres undefined), 187 to 189 °C. Consider `Cc1c(C)c2c(c(C)c1O)CCC(C)(C(=S)Nc1cc(C(C)(C)C)c(O)c(C(C)(C)C)c1)O2` (centres undefined), for which the melting point is 172 to 174 °C. As for `CC(O)(Cc1ccccc1)CN1CCC2(CC1)CSC1=C(O2)c2ccccc2C(=O)C1=O` (centres undefined), the melting point lay within 186 to 187 °C. For `CCCCCCCC1CCC(CC(C#N)c2ccc(Br)cc2)CC1` (centres undefined) the value was 56 to 57 °C; for `Cc1ccccc1NC(=O)Nn1c(=O)c(=O)[nH]c2ccccc21`, greater than 300 °C; for `O=C(NC1N=C(c2ccccc2F)c2ccccc2NC1=O)c1ccc(Cl)cc1` (racemic), 258 to 259 °C. For `CC(=O)Oc1cc2oc(=O)ccc2cc1C` the value was 147 °C; for `Cc1cccc2c1NC(=O)C(CCCN1CCN(c3ccc(F)cc3)CC1)S2` (centres undefined), 116 to 117 °C; for `Cc1nc(N=Nc2ccccc2)c(O)c(=O)[nH]1`, 243 to 245 °C.

`OC(CCn1ccnc1)(c1ccccc1)c1ccc2sc3ccccc3c2c1` (centres undefined): the melting point fell in the range of 88 to 91 °C. The same measure for `O=C(O)CC(C(=O)O)C(CSc1nc2ccccc2s1)C(=O)O` (centres undefined): 188 to 190 °C; for `CC(C)c1nc(COC(N)=O)n(C)c1Sc1cc(Cl)cc(Cl)c1`: 146 to 148 °C; for `CN1CCC(=C2c3ccccc3C=Cc3ccc(I)cc32)CC1`: 166 to 170 °C. The same measure for `CC1c2cccn2-c2ccc(F)cc2N1S(=O)(=O)c1ccc(O)cc1` (centres undefined): 180 to 182 °C.

The compound `CN1CCc2c(Br)sc(Br)c2C(c2ccccc2)C1` (centres undefined) showed a melting point of 83 °C. For `Cc1ccc(-c2cc(C(F)(F)F)n3cnc(-c4cccnc4)c3n2)cc1C(F)(F)F` the value was 236 °C; for `CCCOc1cc2sc(C(=O)O)cc2cc1OCC`, 192 to 194 °C. On to `CC(=O)Nc1ccc(C2=NN(C(=O)C3CC3)C(C)Cc3cc4c(cc32)OCO4)cc1` (centres undefined), for which the melting point was 242 to 243 °C. The same measure for `COc1cc2cc3c(=O)c(C#N)c[nH]c3cc2cc1O`: greater than 300 °C. The same measure for `CS(=O)(=O)c1ccc2nc(NC(=N)N)nc(-c3ccccc3)c2c1`: 180 to 185 °C. `CC1(C)CCC(C)(C)C1C(=O)O` yielded a melting point of 114 °C. For `C#CCn1c(=O)c2cc(Cl)ccc2c2ccc(Cl)cc21`, the melting point was in the range of 248 to 250 °C. Compound `CCC(CC)C(c1ccnn1-c1ccccc1)N(C)S(=O)(=O)c1cc(Cl)c(Cl)s1` (centres undefined) had a melting point of 99 to 100 °C. The same measure for `Cn1nc(C(F)(F)C(F)(F)F)cc1O`: 183 to 188 °C; for `O=C1NCCN1c1ccncc1`: 204 to 207 °C.

As for `COc1ccc(CCc2ccc(-n3c(C)nc4cnccc43)cc2)cc1OC1CCCC1`, the melting point was in the range of 123 to 125 °C. For `CC(C)(C)c1ccc(CCCCC(O)C2CCCCC2)cc1NC(=O)CC1c2ccccc2Oc2ccccc21` (centres undefined) the value was 147 to 148 °C.

In turn, `Cc1ccc(S(=O)(=O)n2ccc3c(-c4c(-c5ccc(F)cc5)nc5ccc(N6CCN[C@H](C)C6)nn45)ccnc32)cc1` came in with a melting point of 253 to 256 °C. For `Cn1cc2c(O)c(C(=O)c3ccccc3)cnc2n1` the value was 286 to 290 °C. `CC1=C(C#N)S(=O)(=O)c2ccc(C(F)(F)F)cc2N1` displayed a melting point of 329 to 333 °C.

`COc1cc(/C=C/C(=O)/C=C/c2ccc(OC(F)(F)F)cc2)ccc1O` yielded a melting point of 93 to 95 °C. `CCOC(=O)N1CCN(c2ccc(OC[C@H]3CCn4cc([N+](=O)[O-])nc4O3)cc2)CC1` came in with a melting point of 218 °C. The compound `Nc1ccc(S(F)(F)(F)(F)F)cc1[N+](=O)[O-]` returned a melting point of 132 to 135 °C. The same measure for `CCCCCCCOc1ccc2c(c1)Nc1cccc(S(=O)(=O)N(C)C)c1S2`: 160 to 162 °C; for `CN(CCCCCCCC(=O)O)c1cnc(-c2ccccc2)c(-c2ccccc2)n1`: 116 to 117 °C. `CCOC(=O)c1c(NC2CCCCC2)c(C#N)c(=O)n2ccccc12` displayed a melting point of 140 to 141 °C. For `CON(C)C(=O)Nc1ccc(CN2OCCC(C)(SC)C2=O)c(Cl)c1` (centres undefined) the value was 88 to 91 °C; for `Cc1ccc(C(=S)c2cc(C(C)(C)C)c(O)c(C(C)(C)C)c2)cc1`, 135 to 136 °C; for `O=C1CCC(c2ccccc2)(c2ccccc2)CN1`, 177 to 180 °C. The same measure for `CCCCC(=O)N(Cc1ccc(OC)cc1)c1cc(F)cc(-c2nnn[nH]2)c1`: 122 to 125 °C. The same measure for `NC(=Nc1ccc(N2CCNCC2)cc1)c1cccs1`: 180 °C. In turn, `CCOC(=O)c1cnc2[nH]ncc2c1O` returned a melting point of 275 °C. For the compound `CC1(C)OC(=O)N=C1c1ccccc1`, the melting point is 106 to 108 °C. In turn, `CC(C)CCOc1c(-c2ccc(S(N)(=O)=O)cc2)cnn(-c2cccc(Cl)c2)c1=O` gave a melting point of 137 to 139 °C. Consider `O=C1c2ccccc2C(=O)N1Nc1ccccc1`, for which the melting point was determined as 180 °C. For `CC(=O)SCC1CN2CCCC(C(=O)OC(C)(C)C)N2C1=O` (centres undefined) the value was 92 to 93 °C; for `Cc1cc(C(=O)O)ccc1Cc1cc2cc(C(F)(F)F)ccc2n1S(=O)(=O)c1cccc(C(C)(C)C)c1`, 135 °C; for `CC(=O)OCC1OC(n2c(Cl)nc3cc(Cl)c(Cl)cc32)C(O)C1O` (centres undefined), 82 to 87 °C. For `COc1ccc(/C=C/C(=O)N2CCN(C(=O)c3cc(C(F)(F)F)cc(C(F)(F)F)c3)[C@H](Cc3ccc(C)c(C)c3)C2)cc1` the value was 67 to 76 °C. For `O=C1CC(C(=O)O)C2(CCCCC2)C1` (centres undefined) the value was 146 to 147 °C.

For orientation: melting point means the temperature, or range, at which the solid turns liquid.
